Test results reported in paper PMC6843832, “Synthesis of Novel Analogs of Thieno[2,3-d] Pyrimidin-4(3H)-ones as Selective Inhibitors of Cancer Cell Growth” (Biomolecules, 2019).
Read-outs that look alike come from different tables or passages of the source.

How the values were obtained:
PC-9 cells = assay: MTT assay, PC-9 cells; type: cell-based; settings: human non-small cell lung cancer cells, 72 h, read-out: Cytotoxic activity (IC50) PC-9
Protocol: (§1) Primary human liver HL-7702 cells were purchased from SIBS (Shanghai Institutes for Biological Sciences, Shanghai, China) while MCF-7, A549, PC-9 and PC-3 cells were from ATCC (American Type Culture Collection, Rockville, MD, USA). HL-7702, PC-9 and A549 cells were incubated with Roswell Park Memorial Institute (RPMI) 1640 medium and MCF-7 were cultured in Dulbecco’s Modified Eagle’s Medium (DMEM) supplemented with 10% heat-inactivated fetal bovine serum (FBS) and 1% antibiotics (penicillin and streptomycin). PC-3, a human prostate adenocarcinoma cell, was maintained in Ham’s F-12 Medium supplemented with 10% FBS, 1% penicillin/streptomycin and 1% glutamine. All cells were cultured at 37 °C in an incubator containing 5% CO2. The cell viability was determined by using the MTT (methyl thiazolyl tetrazolium bromide) assay. Briefly, cells were seeded in 96-well plates (4 × 10^3 cells/well) overnight and exposed to the synthesized compounds with various concentrations. Camptothecin and dimethyl sulfoxide (DMSO) served as a positive control and a negative control respectively. After 72 h of incubation, 20 μL of MTT (5 mg/mL in phosphate buffer saline (PBS)) were added into each well. Dissolved yellowish MTT is converted to an insoluble purple formazan during incubation (4 h). In order to dissolve the formazan crystals, 100 μL of lysis solution (10% SDS (sodium dodecyl sulfate)-5% isobutyl alcohol-0.01M HCl) was added into per well. Finally, the optical density (OD) of solution in the plates was measured using a microplate reader at 570 nm after dissolving overnight. Cell viability was calculated by using the following formula: […].

MTT assay, HL-7702 cells = type: cell-based, human; settings: HL-7702 cells (normal liver cells); normal human liver cells, MTT, 72 h; read-out: Cytotoxic activity (IC50) HL-7702
Protocol: as §1

PC-3 cells = assay: MTT assay, PC-3 cells; type: cell-based; settings: human prostate cancer cells, 72 h, read-out: Cytotoxic activity (IC50) PC-3
Protocol: as §1

A549 cells [1] = assay: MTT assay, A549 cells; type: cell-based; settings: human non-small cell lung cancer cells, read-out: Cytotoxic activity (IC50) A549
Protocol: as §1

MCF-7 cells = assay: MTT assay, MCF-7 cells; type: cell-based; settings: MCF7, human breast cancer cells, 72 h, read-out: Cytotoxic activity (IC50) MCF-7
Protocol: as §1

HL-7702 cells = assay: MTT assay, HL-7702 cells; type: cell-based, human; settings: HL-7702, MTT
Protocol: as §1

Bcl-2 = assay: Western blotting, Bcl-2; type: cell-based, human; settings: A549 cells, 0-10 μM, 72 h, western blot
Protocol: (§2) Total protein samples were extracted from A549 cells. cells were treated with different concentrations of compounds for 72 h, then the cells were collected, homogenized in 100 µL of ice-cold lysis buffer containing 2% SDS (sodium dodecyl sulfate), 10% DTT (dithiothreitol), 10% glycerin, 0.1% BPB (bromophenol blue) and 50mM Tris buffer (pH 6.8). After cell lyses were boiled for 30 min at 100 °C, samples were resolved on 12% SDS-PAGE (polyacrylamide gel) and then transferred to nitrocellulose (NC) membranes. Then the membranes were blocked with 5% skim milk at room temperature for 1 h. After incubation, the membranes were probed by primary antibodies for β-actin, Bax (BCL2-associated X protein) and Bcl-2 (B-cell lymphoma-2) at 4 °C overnight. After the blots were washed in TBST (Tris-base solution-Tween 20), membranes were incubated with HRP (horseradish peroxidase) -conjugated IgG secondary antibodies for 1 h at 37 °C. Finally, a Chemi-Doc image analyzer was used to determine protein expression levels by analyzing the signals captured on the NC membranes.

caspase-3 = assay: Caspase-3 activity assay; type: cell-based, human; settings: A549 cells, 0, 1, 5 μM, 48 h
Protocol: Briefly, A549 cells were cultured at 2 × 10^5 cells/well in 6-well plates and incubated with different concentrations of compounds (0, 1, 5 µM) for 48 h. At the end of the treatment, cells were harvested and lysed by the addition of lysis buffer from the caspase-3 assay kit. Aliquots of cell lysate were added to 96-well plates and the supernatant of cell lysates were mixed with buffer containing the above substrate peptides for 2 h at 37 °C. The absorbance in each well was measured at 405 nm using a microplate reader.

Bax = assay: Western blotting, Bax; type: cell-based, human; settings: A549 cells, 0-10 μM, 72 h, western blot
Protocol: as §2

A549 cells [2] = assay: Hoechst 33258 staining (apoptosis); type: cell-based, human; settings: 72 h
Protocol: For Hoechst staining, A549 cells were seeded in 6-well plates (8 × 10^4 cells/well) and allowed to adhere overnight. Compounds at a final concentration of 10, 5 and 1 µM were used to treat cells in the exponential growth phase for 72 h. Following this, the staining solution was added to the well plates and held at room temperature for 10 min. Afterwards, Hoechst 33258 was added to dye the cells for 10 min at room temperature in the dark. After washing two times with PBS, the treated cells were photographed under a semi-electrical fluorescence microscope (Olympus BX53, Olympus, Tokyo, Japan), to capture images of the stained nuclei from each well from randomly selected regions.

A549 cells [3] = assay: Colony formation assay; type: cell-based; settings: Homo sapiens, read-out: inhibition rate of colony formation
Protocol: The colony formation assay was executed to assess the colony forming ability of cancer cells treated by compounds. After being trypsinized and counted, the cells were seeded again on a 6-well plate with 4000 cells/well. Subsequently, cells were incubated at 37 °C in 5% CO2 overnight with medium. Afterwards, the cells were being treated with drugs (1 μM, 10 μM) and camptothecin (0.1 μM) for 10 days. Then, fresh PBS (1 mL/well) was added to wash the cells twice, before fixing with the stationary solution (10% acetic acid- 10% methanol- 80% dd H2O, 1 mL/well) at room temperature for 30 min. After that, 1% crystal violet was used to stain the cells. The cell viability was evaluated by the number of purple colonies.

Row | Compound | IC50 (PC-9 cells) | IC50 at 72 h (MTT assay, HL-7702 cells) | IC50 (PC-3 cells) | IC50 (A549 cells [1]; Homo sapiens, A549, 72 h) | IC50 (MCF-7 cells) | melting point | toxicity to normal human liver cells (HL-7702 cells) | Bcl-2 protein expression level (Bcl-2) | Bcl-2/Bax ratio (Bcl-2; compared to control) | caspase-3 activity (caspase-3) | Bax protein expression level (Bax) | nuclear morphology, Hoechst 33258 staining (A549 cells [2]; 1 μM) | nuclear morphology, Hoechst 33258 staining (A549 cells [2]; 5 and 10 μM) | inhibition at 1 µM (A549 cells [3]) | IC50 (A549 cells [1]; 72 h)
1 | O=c1c2c3c(sc2nc(-c2ccc(Cl)cc2)n1Cc1ccccc1)CCCCC3 [Compound 16] | > 100 µM | > 100 µM | > 100 µM | 81 ± 1.04 µM | > 100 µM | 170 to 172 °C | – | – | – | – | – | – | – | – | –
2 | O=c1c2c3c(sc2nc(-c2cccs2)n1Cc1ccccc1)CCCC3 [Compound 5] | 81 ± 3.94 µM | > 100 µM | > 100 µM | > 100 µM | 97.5 ± 0.13 µM | 185 to 187 °C | – | – | – | – | – | – | – | – | –
3 | O=c1c2c3c(sc2nc(-c2cccc(Cl)c2)n1CCc1ccc(O)cc1)CCCC3 [Compound 9] | > 100 µM | > 100 µM | > 100 µM | 19.6 ± 0.33 µM | 30.7 ± 0.29 µM | 238 to 240 °C | – | – | – | – | – | – | – | – | –
4 | O=c1c2c3c(sc2nc(-c2ccccc2)n1CCc1ccc(O)cc1)CCCCC3 [Compound 15] | > 100 µM | > 100 µM | 47.5 ± 3.39 µM | 0.94 ± 0.01 µM | 17.3 ± 0.2 µM | – | no toxicity to normal human liver cells | reduction of Bcl-2 level | significant decrease in the proportion of Bcl-2/Bax | accumulation of caspase-3 in the cytosol | increase of Bax level | brightly stained nuclei due to chromatin condensation | cell membrane rupture and contraction were observed | 56% | –
5 | O=c1c2c3c(sc2nc(-c2ccc(C(F)(F)F)c(C(F)(F)F)c2)n1Cc1ccccc1)CCCC3 [Compound 4] | > 100 µM | > 100 µM | > 100 µM | 58.2 ± 0.65 µM | 24.7 ± 2.04 µM | 161 to 163 °C | – | – | – | – | – | – | – | – | –
6 | Cc1sc2nc(-c3cccs3)n(Cc3ccccc3)c(=O)c2c1C [Compound 20] | > 100 µM | > 100 µM | > 100 µM | 80.1 ± 0.83 µM | > 100 µM | 162 to 164 °C | – | – | – | – | – | – | – | – | –
7 | O=c1c2c3c(sc2nc(-c2ccc(F)cc2)n1Cc1ccccc1)CCCCC3 [Compound 17] | > 100 µM | > 100 µM | > 100 µM | > 100 µM | > 100 µM | 146 to 148 °C | – | – | – | – | – | – | – | – | –
8 | O=c1c2c3c(sc2nc(-c2ccco2)n1Cc1ccccc1)CCCCC3 [Compound 11] | > 100 µM | > 100 µM | > 100 µM | 51.42 ± 0.46 µM | 65.63 ± 0.26 µM | 192 to 194 °C | – | – | – | – | – | – | – | – | –
9 | Cc1sc2nc(-c3ccccc3)n(CCc3ccc(O)cc3)c(=O)c2c1C [Compound 22] | > 100 µM | > 100 µM | > 100 µM | > 100 µM | 21.9 ± 0.82 µM | 251 to 253 °C | – | – | – | – | – | – | – | – | –
10 | Cc1cc(-c2nc3sc4c(c3c(=O)n2CCc2ccc(O)cc2)CCCCC4)sc1C [Compound 14] | 86.33 ± 0.22 µM | 68.64 ± 0.26 µM | 84.68 ± 0.48 µM | 49.8 ± 0.68 µM | 46.1 ± 0.48 µM | 186 to 188 °C | – | – | – | – | – | – | – | – | –
11 | O=c1c2c3c(sc2nc(-c2ccc(Cl)cc2)n1CCc1ccc(O)cc1)CCCCC3 [Compound 19] | 26.7 ± 1.38 µM | 19.16 ± 0.06 µM | 25.1 ± 0.37 µM | < 10 µM | 13.04 ± 0.11 µM | – | – | – | – | – | – | – | – | – | 6.26 ± 0.87 µM
12 | O=c1c2c3c(sc2nc(-c2ccccc2)n1Cc1ccccc1)CCCC3 [Compound 2] | > 100 µM | > 100 µM | > 100 µM | > 100 µM | > 100 µM | – | – | – | – | – | – | – | – | – | –
